This note sets out measurements from patent US20050261332A1, “Sulfonamides and uses thereof” (priority 2004, published 2005).

T1 sequence (Q92847 whole entry, species assumed): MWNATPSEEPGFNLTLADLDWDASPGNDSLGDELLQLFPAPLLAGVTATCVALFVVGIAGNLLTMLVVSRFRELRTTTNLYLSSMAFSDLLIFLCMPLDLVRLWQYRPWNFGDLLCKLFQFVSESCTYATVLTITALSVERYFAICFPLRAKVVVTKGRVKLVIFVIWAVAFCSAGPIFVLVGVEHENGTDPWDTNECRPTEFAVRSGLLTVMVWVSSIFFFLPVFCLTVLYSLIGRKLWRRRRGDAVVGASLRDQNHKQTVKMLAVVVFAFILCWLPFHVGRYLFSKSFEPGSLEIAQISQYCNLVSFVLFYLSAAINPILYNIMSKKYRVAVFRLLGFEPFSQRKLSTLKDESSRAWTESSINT

The first assay relates to mice. In words: fast refeed (fast-refeeding) assay in mice. Type of assay: in vivo. As for the experimental part:
In vivo assays. Exemplary in vivo assays include the fast-refeeding assay described in Example 1 and as follows.
Food is removed at 6 pm for an overnight (˜16 hour) fast. Beginning at 10 am on the next morning, mice are administered with either vehicle (e.g., saline+acetic acid, pH=5) or the compound of interest. Mice are then returned to their home cages and pre-weighed food (approximately 90 grams) is immediately returned to the food hoppers in each cage. The weight of the food remaining in the food hoppers is measured at 30 minutes, 1 hour, 2 hours, and 4 hours post compound/vehicle administration. Final body weights are then recorded for the mice.
As for “substance P: substance P; found to modulate GHS-R activity and to alter feeding activity of mice”, the “feeding activity of mice in the fast refeed assay” value is “alters feeding activity”.

The next assay addresses T1, GHS-R (Homo sapiens, UniProt Q92847).
T1 construct: expressed in transfected cells; host or cells: COS-7 cells
In words: GHS-R competition binding assay (Ki of GHS-R antagonizing compounds). Put shortly: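 COS-7 cells expressing GHS-R (1×10^5 cells/well) competed against 25 pM ^125I-ghrelin for 3 hours at 4° C in 50 mM HEPES pH 7.4 with 1 mM CaCl2, 5 mM MgCl2, 0.1% BSA, bacitracin. Nonspecific binding with […]; bound radioactivity counted after washing and lysis. Ki=IC50/(1+L/Kd).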
Regarding `CCN(CC)CCS(=O)(=O)N[C@H](CCc1ccccc1)C(=O)c1ccc(-c2ccccc2CNC(=O)NCCO)cc1` [Compound 201, (R)-2-(diethylamino)-N-(1-(2′-((3-(2-hydroxyethyl)ureido)methyl)biphenyl-4-yl)-1-oxo-4-phenylbutan-2-yl)ethanesulfonamide], the Ki is < 100 nM. On the same count and under the same terms, then `C=C(C)C(=O)OCCNC(=O)NCc1ccccc1-c1ccc(C(=O)[C@@H](CCc2ccccc2)NS(=O)(=O)CCN(CC)CC)cc1` [Compound 202, (R)-2-(3-((4′-(2-(2-(diethylamino)ethylsulfonamido)-4-phenylbutanoyl)biphenyl-2-yl)methyl)ureido)ethyl methacrylate], with 100 to 1000 nM; and `CCN(CC)CCS(=O)(=O)N[C@H](CCc1ccccc1)C(=O)c1ccc(-c2ccccc2CN)cc1` [Compound 203, (R)-N-(1-(2′-(aminomethyl)biphenyl-4-yl)-1-oxo-4-phenylbutan-2-yl)-2-(diethylamino)ethanesulfonamide], with 100 to 1000 nM; and `CCN(CC)CCS(=O)(=O)N[C@H](CCc1ccccc1)C(=O)c1ccc(-c2ccccc2CNC(C)=O)cc1` [Compound 204, (R)-N-((4′-(2-(2-(diethylamino)ethylsulfonamido)-4-phenylbutanoyl)biphenyl-2-yl)methyl)acetamide], with < 100 nM. On the same count and under the same terms, the figure for `CCNC(=O)NCc1ccccc1-c1ccc(C(=O)[C@@H](CCc2ccccc2)NS(=O)(=O)CCN(CC)CC)cc1` [Compound 205, (R)-2-(diethylamino)-N-(1-(2′-((3-ethylureido)methyl)biphenyl-4-yl)-1-oxo-4-phenylbutan-2-yl)ethanesulfonamide] is < 100 nM.

`CCN(CC)CCCS(=O)(=O)N[C@H](CCc1ccccc1)C(=O)NCc1ccc(-c2ccccc2CCNC(=O)NC)cc1` [Compound 206, (R)-2-(3-(diethylamino)propylsulfonamido)-N-((2′-(2-(3-methylureido)ethyl)biphenyl-4-yl)methyl)-4-phenylbutanamide]: the Ki was < 100 nM. Turning to `CCN(CC)CCCS(=O)(=O)N[C@H](CCc1ccccc1)C(=O)NCc1ccc(-c2ccccc2CO)cc1` [Compound 207, (R)-2-(3-(diethylamino)propylsulfonamido)-N-((2′-(hydroxymethyl)biphenyl-4-yl)methyl)-4-phenylbutanamide], the Ki is < 100 nM. Still for that read-out and setting: then `CCN(CC)CCCS(=O)(=O)N[C@H](CCc1ccccc1)C(=O)NCc1ccc(-c2ccccc2COC(=O)NC)cc1` [Compound 208, (R)-Methyl-carbamic acid 4′-{[2-(3-diethylamino-propane-1-sulfonylamino)-4-phenyl-butyrylamino]-methyl}-biphenyl-2-ylmethyl ester], with < 100 nM; and `CCN(CC)CCS(=O)(=O)N[C@H](CCc1ccccc1)C(=O)c1ccc(-c2ccccc2CNC(=O)NC)cc1` [Compound 209, (R)-2-(diethylamino)-N-(1-(2′-((3-methylureido)methyl)biphenyl-4-yl)-1-oxo-4-phenylbutan-2-yl)ethanesulfonamide], with < 100 nM. With `CCN(CC)CCCS(=O)(=O)N[C@@H](COCc1ccccc1)C(=O)N1CCC2(CC1)CN(S(C)(=O)=O)c1ccccc12` [Compound 210, (S)-N-(3-(benzyloxy)-1-(1-(methylsulfonyl)spiro[indoline-3,4′-piperidine]-1′-yl)-1-oxopropan-2-yl)-3-(diethylamino)propane-1-sulfonamide], the inhibition constant Ki was in the range of 100 to 1000 nM. Same read-out and setting: then `CCN(CC)CCCS(=O)(=O)N[C@@H](CCc1ccccc1)C(=O)N1CCC2(CC1)CN(S(C)(=O)=O)c1ccccc12` [Compound 211, (S)-3-(diethylamino)-N-(1-(1-(methylsulfonyl)spiro[indoline-3,4′-piperidine]-1′-yl)-1-oxo-4-phenylbutan-2-yl)propane-1-sulfonamide], with < 100 nM; and `CCN(CC)CCS(=O)(=O)N[C@H](CCc1ccccc1)C(=O)c1ccc(-c2ccccc2CCNC(=O)NC)cc1` [Compound 212, (R)-2-(diethylamino)-N-(1-(2′-(2-(3-methylureido)ethyl)biphenyl-4-yl)-1-oxo-4-phenylbutan-2-yl)ethanesulfonamide], with < 100 nM; and `CCN(CC)CCCS(=O)(=O)N[C@H](COCc1ccccc1)C(=O)NCc1ccc(-c2ccccc2CN)cc1` [Compound 213, (R)-N-(2′-Aminomethyl-biphenyl-4-ylmethyl)-3-benzyloxy-2-(3-diethylamino-propane-1-sulfonylamino)-propionamide], with 100 to 1000 nM. Still for that read-out and setting: then `CCN(CC)CCCS(=O)(=O)N[C@H](COCc1ccccc1)C(=O)NCc1ccc(-c2ccccc2CNC(=O)NC)cc1` [Compound 214, (R)-3-Benzyloxy-2-(3-diethylamino-propane-1-sulfonylamino)-N-{2′[(3-methyl-ureido)-methyl]-biphenyl-4-ylmethyl}-propionamide], with 100 to 1000 nM; and `CCN(CC)CCS(=O)(=O)N[C@H](CCc1ccccc1)C(=O)c1ccc(-c2ccccc2COC(=O)NC)cc1` [Compound 215, (R)-(4′-(2-(2-(diethylamino)ethylsulfonamido)-4-phenylbutanoyl)biphenyl-2-yl)methyl methylcarbamate], with > 1000 nM. As for `CCN(CC)CCCS(=O)(=O)N[C@H](COCc1ccccc1)C(=O)NCc1ccc(-c2ccccc2CNC(C)=O)cc1` [Compound 216, (R)-N-[2′-(Acetylamino-methyl)-biphenyl-4-ylmethyl]-3-benzyloxy-2-(3-diethylamino-propane-1-sulfonylamino)-propionamide], the Ki was > 1000 nM. Same read-out and setting: then `CCN(CC)CCCS(=O)(=O)N[C@H](COCc1ccccc1)C(=O)NCc1ccc(-c2ccccc2CCNC(=O)NC)cc1` [Compound 217, (R)-3-Benzyloxy-2-(3-diethylamino-propane-1-sulfonylamino)-N-{2′-[2-(3-methyl-ureido)-ethyl]-biphenyl-4-ylmethyl}-propionamide], with 100 to 1000 nM; and `CCN(CC)CCS(=O)(=O)N[C@H](CCc1ccccc1)C(=O)c1ccc(-c2ccccc2C(N)=O)cc1` [Compound 218, (R)-4′-(2-(2-(diethylamino)ethylsulfonamido)-4-phenylbutanoyl)biphenyl-2-carboxamide], with > 1000 nM; and `CCN(CC)CCCS(=O)(=O)N[C@H](COCc1ccccc1)C(=O)c1ccc(-c2ccccc2COC(=O)NC)cc1` [Compound 219, (R)-Methyl-carbamic acid 4′-[(R)-3-benzyloxy-2-(3-diethylamino-propane-1-sulfonylamino)-propionyl]-biphenyl-2-ylmethyl ester], with 100 to 1000 nM. On the same count and under the same terms, the figure for `CS(=O)(=O)N1CC2(CCN(C(=O)[C@@H](CCCc3ccccc3)NS(=O)(=O)CCCN=[N+]=[N-])CC2)c2ccccc21` [Compound 220, (R)-3-azido-N-(1-(1-(methylsulfonyl)spiro[indoline-3,4′-piperidine]-1′-yl)-1-oxo-5-phenylpentan-2-yl)propane-1-sulfonamide] is 100 to 1000 nM.

For “(R)-N-(3-(benzyloxy)-1-(1-(methylsulfonyl)spiro[indoline-3,4′-piperidine]-1′-yl)-1-oxopropan-2-yl)-3-isosulfonylazolidine [Compound 151]”, the inhibition constant Ki is 100 to 1000 nM.
